Read-outs that look alike come from different tables or passages of the source.
What was measured:
Test in all cases: pTyr-Var library bacterial peptide display kinase screen (enrichment scores)
c-Src kinase domain = c-Src kinase domain (Homo sapiens, UniProt P12931); type: biochemical;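 further: log2 fold change in enrichment of variant over reference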
Fer kinase domain = type: biochemical, mouse; conditions: sheet "Fer"
c-Abl kinase domain = molecular target: T1, c-Abl kinase domain (Mus musculus, UniProt P00520); type: biochemical;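 further: log2 fold change in enrichment of variant over reference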
T1 sequence (P00520 242-493 limits assumed): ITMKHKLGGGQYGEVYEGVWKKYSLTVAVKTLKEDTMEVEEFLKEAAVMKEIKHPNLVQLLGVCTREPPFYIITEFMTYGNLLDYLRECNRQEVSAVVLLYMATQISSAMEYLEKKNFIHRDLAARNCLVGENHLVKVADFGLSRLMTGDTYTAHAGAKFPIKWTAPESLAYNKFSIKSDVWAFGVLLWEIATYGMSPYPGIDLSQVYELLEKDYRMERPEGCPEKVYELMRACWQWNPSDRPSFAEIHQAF

EPHB1 kinase domain = type: biochemical, human; conditions: for Screen (variant relative to reference peptide, measured in the pTyr-Var library screen): sheet "EPHB1", variant seq vs reference seq, bacterial peptide display enrichment; for Screen: sheet EPHB1, effect of the variant peptide relative to its reference peptide in the pTyr-Var library screen (enrichment scores)
EPHB2 kinase domain = type: biochemical, human; conditions: sheet EPHB2
[1] = sheet "Src", variant peptide versus its reference peptide in the pTyr-Var library screen
[2] = value of the variant peptide against its reference peptide in the pTyr-Var library screen with Fer
[3] = variant peptide relative to its reference peptide, pTyr-Var library screen enrichment
[4] = sheet "Abl", effect of variant peptide relative to its reference peptide in pTyr-Var library screen (enrichment)
[5] = effect of the variant relative to its reference peptide in the pTyr-Var library screen
[6] = sheet "Src", effect of the variant peptide relative to its reference peptide in the pTyr-Var library screen
[7] = effect of variant peptide relative to its reference peptide in the pTyr-Var library screen (enrichment scores)
[8] = fig5-data2, sheet "Abl", Screen for the variant/reference peptide pair, pTyr-Var library

Sequence	Screen (Fer kinase domain; [2])	Screen (EPHB1 kinase domain)	Screen (EPHB2 kinase domain; [7])	further results
PESIMYWKFTT [NTRK3_Y744_R745W]	1.613	–	–	Screen (c-Src kinase domain; [1]): 2.713
NTVDFYDLFGG [PTPN11_Y63_G60V_YF]	–	–	–	Screen (c-Src kinase domain; [1]): -0.792; Screen (Fer kinase domain; [3]): -0.946
AEFGLYAAMVR [VSX2_Y222_G223A_YF]	–	–	–	Screen (c-Src kinase domain; [1]): -0.7281; Screen (c-Abl kinase domain; [4]): 2.617; Screen (variant relative to reference peptide, measured in the pTyr-Var library screen) (EPHB1 kinase domain): 1.956; Screen (EPHB2 kinase domain; [5]): 1.609
QADVTYVNTQL [MERTK_Y872_I871T]	-3.553	-1.632	–	–
LGSVVYAQSKE [KCNQ2_Y226_H228Q]	–	1.461	–	–
PEAALYGRFTF [FYN_Y440_I445F]	0.7423	–	–	Screen (c-Src kinase domain; [6]): 0.2008
LIGWRYDDPEV [HSPA9_Y128_R126W]	–	–	-0.9592	–
DLDFTYIFPNI [PTEN_Y27_L25F_YF]	–	-1.115	–	Screen (c-Src kinase domain; [1]): -0.8557
VFDHIYTTQSD [RET_Y928_L923V]	–	–	-2.18	Screen (c-Src kinase domain; [1]): -1.024; Screen (Fer kinase domain; [3]): -1.691
RRIHSYRRHLW [VHL_Y112_G114R]	–	–	–	Screen (c-Src kinase domain; [1]): -2.73; Screen (variant relative to reference peptide, measured in the pTyr-Var library screen) (EPHB1 kinase domain): -1.158
GSESDYIIMPN [SCARB1_Y133_V135I]	–	–	-0.2465	Screen (variant relative to reference peptide, measured in the pTyr-Var library screen) (EPHB1 kinase domain): -0.2975
LVKDPYVMFPQ [PLEKHG2_Y489_P484L]	–	–	–	Screen (c-Src kinase domain; [1]): 0.6915; Screen (c-Abl kinase domain; [8]): 1.829
QAPPIYLDVLG [NTRK1_Y791_V790I]	2.26	1.721	1.355	Screen (c-Src kinase domain; [1]): 1.261
RCQDLYSARDL [SART1_Y249_R245C]	–	1.546	–	Screen (c-Src kinase domain; [1]): 2.461; Screen (Fer kinase domain; [3]): 2.483
KSSDVYVSFDC [SORL1_Y136_Y141C_YF]	–	–	–	Screen (c-Src kinase domain; [1]): -0.3615; Screen (Fer kinase domain; [3]): -2.678; Screen (variant relative to reference peptide, measured in the pTyr-Var library screen) (EPHB1 kinase domain): -0.2812
RQQQDYWLMDV [ANPEP_Y600_I603M]	-1.652	-0.3	-0.2938	–
DISEPYEVFRI [IRF8_Y107_K108E_YF]	4.437	–	–	Screen (c-Src kinase domain; [6]): 2.852
ADARMYGVLPR [PLP1_Y207_W212R]	–	–	-2.437	Screen (c-Src kinase domain; [1]): -3.205
DFFDLYGGEKL [PTPN11_Y66_F71L_YF]	–	–	–	Screen (c-Src kinase domain; [1]): 0.4429; Screen (c-Abl kinase domain; [8]): -1.348
TTEHIYGDKFF [UBA7_Y524_N527K]	–	–	–	Screen (c-Src kinase domain; [1]): 0.1479; Screen (Fer kinase domain; [3]): -2.246
LPPREYVVVPS [CAPN1_Y494_G492R]	0.6785	-0.6929	-0.3372	–
KFEDVYVRICL [B3GALNT1_Y269_G271R]	-2.092	–	–	Screen (c-Src kinase domain; [6]): -2.417
QNTADYFDLFG [PTPN11_Y62_G60A_YF]	–	-0.5569	-0.5539	Screen (c-Src kinase domain; [1]): -1.145
MAPQMYESHLP [NCAPD2_Y6_F8S]	-1.098	-3.091	-2.267	–
LGSWTYPKTVS [ROS1_Y144_T145P]	–	-2.133	–	–

Sequence	Screen (Fer kinase domain; [2])	Screen (EPHB1 kinase domain)	Screen (EPHB2 kinase domain; [7])	further results
HLMLQYDAVVN [SLC25A32_Y152_R147H]	–	–	1.051	Screen (Fer kinase domain; [3]): 1.415
DTFDPYLDIAL [USP36_Y268_V271I_YF]	–	–	–	Screen (Fer kinase domain; [3]): -0.4655
QNTGNYFDLFG [PTPN11_Y62_D61N_YF]	–	0.2097	0.1444	Screen (c-Src kinase domain; [1]): -1.162
QPDLLYDHIQP [TRRAP_Y862_F860L]	–	–	–	Screen (c-Src kinase domain; [1]): 0.81; Screen (Fer kinase domain; [3]): 1.063; Screen (variant relative to reference peptide, measured in the pTyr-Var library screen) (EPHB1 kinase domain): 1.53; Screen (EPHB2 kinase domain; [5]): 2.501
LAIEWYVVVCK [RHO_Y136_R135W]	–	0.5887	–	–
PIAPVYAPSMV [ACAT1_Y331_A333P]	1.079	-0.08214	0.3731	Screen (c-Src kinase domain): -0.325
QNKEDYDGLKE [GSTO1_Y139_A140D]	-0.3459	–	–	–
QMVGMYAFSFM [AVPR2_Y124_S126F_YF]	2.024	0.9458	0.9949	Screen (c-Src kinase domain; [6]): -0.3615
NTADFYDLFGG [PTPN11_Y63_G60A_YF]	–	–	–	Screen (c-Src kinase domain; [1]): -0.001161; Screen (Fer kinase domain; [3]): -0.1929
VVTGPYEKPSL [KIR3DS1_Y221_L220P]	-4.323	-2.822	-3.858	–
CPPKVYELMIA [ABL2_Y515_R519I]	0.2175	-0.2414	-0.0581	Screen (c-Src kinase domain): 0.5796
SAAAIYMVRHP [PMP22_Y117_T118M]	–	2.191	1.843	Screen (c-Src kinase domain; [1]): -0.2351
WASGIYFVPKG [APBB1IP_Y340_R335W_YF]	2.226	1.089	2.1	Screen (c-Src kinase domain; [6]): 0.1676
MKDLTYSSLCF [ALOX5_Y446_A447S]	1.165	0.1163	0.3665	Screen (c-Src kinase domain; [6]): 0.1056
MGGSLYFSFPD [HIKESHI_Y55_V54L_YF]	–	2.816	2.441	Screen (c-Src kinase domain; [6]): 0.1907
EPSLVYMVTKI [CPS1_Y768_D767V]	1.098	–	–	–
QGFDTYFGFLL [ARSB_Y165_R160Q_YF]	0.9524	0.1277	0.8549	Screen (c-Src kinase domain; [6]): 0.07217
LQEQNYPAVDS [FAM114A1_Y115_L116P]	-1.861	-2.139	-0.9591	–
FGMQLYQKFMH [GRB14_Y347_N349K_YF]	-1.436	-1.356	-1.587	Screen (c-Src kinase domain; [6]): -0.6929
NRLTDYFELLL [BBS10_Y536_P539L_YF]	–	-2.013	–	–
HNVAIYEGFAL [ACTC1_Y168_P166A_YF]	-0.3735	-1.018	-1.285	Screen (c-Src kinase domain; [6]): -0.2279
ASFSLYEPAKM [MKI67_Y340_P338S]	-0.8096	-1.581	-1.997	Screen (c-Src kinase domain; [6]): -1.253
GFILMYDITNK [RAB3C_Y110_E115K]	–	–	-0.5126	–
MWGSDYVHLSR [MAP3K4_Y582_Q584H]	–	-1.547	-2.255	–
FEELVYETVRV [FSHB_Y76_K72E]	-0.5222	-1.125	-0.7932	Screen (c-Src kinase domain; [6]): -0.8103

Sequence	Screen (Fer kinase domain; [2])	Screen (EPHB1 kinase domain)	Screen (EPHB2 kinase domain; [7])	further results
RLEPVYFVAPA [LAMC2_Y250_D247E]	–	0.4539	0.4501	Screen (c-Src kinase domain; [6]): -0.2779
LAIERYVVVSK [RHO_Y136_C140S]	–	–	0.1273	–
TSIGNYFKPWF [DHCR24_Y299_N294T_YF]	–	0.02902	-0.167	–
HRNNNYEPNLF [BRCA2_Y57_K53R]	–	-0.3671	–	–
VNNLVYENING [FRS2_Y306_K303N]	1.713	1.417	2.712	Screen (c-Src kinase domain; [6]): 1.603
MNLLGYRQVRS [CHST4_Y359_H361Q]	–	–	–	Screen (c-Abl kinase domain; [8]): -1.908
EAIAKYDLKAT [GRB2_Y7_F9L]	–	–	–	Screen (c-Abl kinase domain; [8]): -1.289
AVDDKYSRREE [SART1_Y685_I681V]	–	–	–	Screen (c-Abl kinase domain; [4]): 0.5221
IQRSLYDCPAS [PDGFRA_Y762_R764C]	2.142	2.32	2.388	–
CGTPDYIDPEI [PRKCG_Y521_A523D]	–	–	–	Screen (c-Abl kinase domain; [8]): -0.1317
KMKGDYFRSLA [YWHAG_Y130_Y133S_YF]	–	–	–	Screen (c-Src kinase domain; [1]): -2.206; Screen (c-Abl kinase domain; [4]): -4.108
ALTDNYMFVVI [HAGH_Y61_L64V_YF]	0.9324	0.4544	0.5365	–
KRRGPYEMSPS [PLPP7_Y172_T174M]	–	–	–	Screen (c-Abl kinase domain; [8]): -0.6744
AVIADYMFWLG [SPATA16_Y290_M286V]	–	–	-0.2895	Screen (Fer kinase domain; [3]): -0.04255; Screen (variant relative to reference peptide, measured in the pTyr-Var library screen) (EPHB1 kinase domain): -0.3108
KRGIDYILWHM [FRMD1_Y225_R228W]	–	–	–	Screen (c-Abl kinase domain; [8]): 2.918
TEGNGYISFNE [LCP1_Y28_D24E]	–	–	–	Screen (c-Abl kinase domain; [8]): 0.5821
DAHFTYSRFPW [LY75_Y888_D884A_YF]	–	-0.9728	-0.5554	Screen (c-Src kinase domain; [6]): 0.1806
ERRLIYASDPK [VPS13D_Y864_T865A]	–	–	–	Screen (c-Abl kinase domain; [4]): -3.237
DKATEYSQFMR [MAX_Y70_I71S_YF]	–	–	–	Screen (c-Abl kinase domain; [8]): -0.2428
QVQQIYSDSDL [MIB1_Y376_R371Q]	0.8951	–	1.36	Screen (c-Src kinase domain; [6]): 0.02886
TENAGYFFRIS [TTN_Y31721_V31725I_YF]	–	–	–	Screen (c-Abl kinase domain; [4]): -1.38
PRIHSYRGHLW [VHL_Y112_R107P]	–	–	–	Screen (c-Src kinase domain; [1]): -2.322; Screen (variant relative to reference peptide, measured in the pTyr-Var library screen) (EPHB1 kinase domain): -0.7646
TSKLSYLDPRI [TOP1_Y723_N722S]	–	–	–	Screen (variant relative to reference peptide, measured in the pTyr-Var library screen) (EPHB1 kinase domain): -2.938; Screen (EPHB2 kinase domain; [5]): -1.966

Source: paper PMC10065799, “High-throughput profiling of sequence recognition by tyrosine kinases and SH2 domains using bacterial peptide display” (eLife, 2023)
